Test results published in ChEMBL document CHEMBL5038676, “Novel RIPK1 Inhibitors for Treating Neurodegenerative, Autoimmune, and Inflammatory Diseases” (ACS Med Chem Lett, 2022).

target: T1, Receptor-interacting serine/threonine-protein kinase 1 (Homo sapiens, UniProt Q13546); experiment: Inhibition of recombinant N-terminal GST-tagged human RIPK1 (1 to 327 residues) expressed in baculovirus infected Sf9 insect cells preincubated for 40 mins followed by substrate addition and measured after 60 mins by ADP-glo luminescence assay
T1 sequence (Q13546 whole entry): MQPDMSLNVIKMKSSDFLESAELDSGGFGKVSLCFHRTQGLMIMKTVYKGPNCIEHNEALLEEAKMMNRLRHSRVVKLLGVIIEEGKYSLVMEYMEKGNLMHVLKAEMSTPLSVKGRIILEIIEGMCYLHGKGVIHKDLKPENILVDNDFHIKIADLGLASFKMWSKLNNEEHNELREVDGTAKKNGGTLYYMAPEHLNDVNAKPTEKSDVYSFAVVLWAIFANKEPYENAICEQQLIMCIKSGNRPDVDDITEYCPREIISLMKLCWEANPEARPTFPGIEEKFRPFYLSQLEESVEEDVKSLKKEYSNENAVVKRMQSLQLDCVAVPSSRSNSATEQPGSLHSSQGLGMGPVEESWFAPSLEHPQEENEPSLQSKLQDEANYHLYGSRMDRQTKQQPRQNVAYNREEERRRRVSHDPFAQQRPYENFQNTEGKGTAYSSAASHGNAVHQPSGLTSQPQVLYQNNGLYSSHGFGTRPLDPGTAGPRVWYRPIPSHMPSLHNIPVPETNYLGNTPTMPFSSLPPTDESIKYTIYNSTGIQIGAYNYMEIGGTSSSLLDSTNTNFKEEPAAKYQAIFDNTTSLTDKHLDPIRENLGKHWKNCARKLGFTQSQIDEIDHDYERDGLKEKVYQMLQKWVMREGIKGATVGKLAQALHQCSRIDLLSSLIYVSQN

| SMILES | EC50 [nM] |
| --- | --- |
| O=C(N1CC(Oc2ccccc2F)C1)N1N=CC[C@H]1c1cc(F)cc(F)c1 | 3.1 |
| C[C@H]1[C@@H](Oc2ccc(F)cc2)CN1C(=O)N1N=CC[C@H]1c1ccc(Cl)cc1 | < 5.1 |
| O=C(N1CC(Sc2ccc(Br)cc2)C1)N1N=CC[C@H]1c1cc(F)cc(F)c1 | 5.9 |
| O=C(c1ccccc1)C1CN(C(=O)N2N=CC[C@H]2c2cc(F)cc(F)c2)C1 | 5.6 |
| O=C(N1CC(Oc2ccccc2)C1)N1N=CC[C@H]1c1cc(F)cc(F)c1 | 3.8 |
